Test system: FLAG-CRD-BP
Assay: Western blot of FLAG-CRD-BP in antibiotic-treated HeLa cells
Format: cell-based, human
Conditions: 750 μM; for expression of FLAG-CRD-BP in total cell lysates: compared to untreated cells; for level of immuno-precipitated FLAG-CRD-BP: compared with non-treated cells
Procedure: HeLa cells transfected with pcDNA-FLAG or pcDNA-FLAG-CRD-BP in a 100 mm dish were lysed with 1 mL Total Cell Lysis (TCL) buffer (50 mM Tris-Cl pH 7.4, 150 mM NaCl, 1 mM EDTA, 0.1% Triton X-100) supplemented with 1 mM vanadyl ribonucleoside, 0.5 mM DTT, 0.05 units RNasin, and protease inhibitor tablet (Roche Diagnostics, Laval, Quebec). After 5 minutes on ice, lysed cells were aspirated using a 26 gauge needle five times to break the nuclei. After a 30-minute incubation on ice, the cell lysate was spun down at 14,000 rpm for 10 minutes. The collected supernatant was subjected to pre-clearing by incubating with 50 μL equilibrated-protein-G agarose beads (50% slurry) at 4°C for at least 1 hour. The resin was spun down at 3000xg for 1 minute and the lysate was collected. The pre-clearing step was repeated once after which the pre-cleared lysate was added to 5 μL anti-FLAG antibody (#F1804, Sigma-Aldrich, Oakville, Ontario) and mixed overnight at 4°C. Protein G-agarose beads were then added to the antibody-lysate mixture and mixed for 4 hours at 4°C to capture the anti-FLAG antibody. The agarose beads were then washed four times with TCL buffer followed by five washes with TCL buffer containing 1 M urea. Following the 4th wash with TCL buffer containing urea, 50% of the agarose beads were collected and spun down at 3000xg for 1 minute followed by resuspension in 16 μL of ddH2O for Western blot analysis. The remaining 50% of the agarose beads were subjected to a final wash followed by resuspension in 100 μL TCL buffer containing 0.3 mg/mL proteinase K and 0.1% SDS and incubated at 50°C for 30 minutes. Following incubation, RNAs physically associated with the resin were extracted by the phenol-chloroform-isoamyl alcohol method and quantified using a Nanodrop Spectrometer (Wilmington, Delaware). One μg of RNA from each sample group was treated with DNase (DNA-free kit, Ambion) before cDNA synthesis and qPCR as described above.
Protein samples were separated in a 12.5% polyacrylamide/SDS Lammeli gel system, transferred to a nitrocellulose membrane, and incubated against anti-FLAG (#200472-21, Stratagene, La Jolla, California), IMP1 polyclonal antibody (MBL, Nagoya, Japan), and β–actin (#A5441, Sigma-Aldrich) antibody. PageRuler Plus Prestained Protein Ladder (Thermo Fisher Scientific, Rockford, Illinois) was used to approximate the molecular weight of FLAG-CRD-BP, endogenous CRD-BP, and β–actin bands.

| Molecule | expression of FLAG-CRD-BP in total cell lysates | level of immuno-precipitated FLAG-CRD-BP |
| --- | --- | --- |
| CCC[C@@H]1C[C@@H](C(=O)N[C@@H]([C@H]2O[C@H](SC)[C@H](O)[C@@H](O)[C@H]2O)[C@@H](C)O)N(C)C1 [Lincomycin] | significantly decreased | significantly reduced |
| Neomycin | significantly decreased | significantly reduced |

— PMC3951440, “Assessing Specific Oligonucleotides and Small Molecule Antibiotics for the Ability to Inhibit the CRD-BP-CD44 RNA Interaction” (PLoS ONE, 2014)
